Tested on: 186277-243-T-J2-PDC complex spheroid growth
Test: Anticancer human tumor 186277-243-T-J2-PDC patient-derived colon adenocarcinoma cell line growth inhibition [AhR]
Settings: for IC50: curve of first compound; for viability, T/C: stronger effect = lower value
How it was run: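 Agents were dosed in half-log steps down from roughly clinical Cmax, or from 10 microM where Cmax was unknown, alone and with AhR antagonists. Read-out: percent test/control growth of tumor spheroids containing HUVEC and MSC stromal cells.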

[1] = second compound 0.1 µM, first compound 0.00949 µM
[2] = second compound 0.1 µM, first compound 0.03 µM
[3] = second compound 0.1 µM, first compound 0.0949 µM
[4] = second compound 0.1 µM, first compound 0.3 µM
[5] = second compound 0.316 µM, first compound 0.00949 µM
[6] = second compound 0.316 µM, first compound 0.03 µM
[7] = second compound 0.316 µM, first compound 0.0949 µM
[8] = second compound 0.316 µM, first compound 0.3 µM
[9] = second compound 1 µM, first compound 0.00949 µM
[10] = second compound 1 µM, first compound 0.03 µM
[11] = second compound 1 µM, first compound 0.0949 µM
[12] = second compound 1 µM, first compound 0.3 µM
[13] = second compound 3.16 µM, first compound 0.00949 µM
[14] = second compound 3.16 µM, first compound 0.03 µM
[15] = second compound 3.16 µM, first compound 0.0949 µM
[16] = second compound 3.16 µM, first compound 0.3 µM
[17] = second compound 10 µM, first compound 0.00949 µM
[18] = second compound 10 µM, first compound 0.03 µM
[19] = second compound 10 µM, first compound 0.0949 µM
[20] = second compound 10 µM, first compound 0.3 µM
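Further: spheroids exposed to compounds for seven days before the viability read.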
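Wherever viability, T/C is given: luminescent signal used as a stand-in for viable cell amount; 100% = DMSO vehicle control wells.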

Work on `CC1COCCN1c1cc(C2(S(C)(=N)=O)CC2)nc(-c2ccnc3[nH]ccc23)n1` (stereo not given) + Cc1ccccc1N=Nc1ccc(NC(=O)c2ccnn2C)c(C)c1 yielded an IC50 (second compound 0.1 µM) of 2340 nM, an IC50 (second compound 0.316 µM) of 2350 nM and an IC50 (second compound 1 µM) of 2180 nM. It also gave an IC50 (second compound 3.16 µM) of 2200 nM, an IC50 (second compound 10 µM) of 2170 nM and a viability, T/C (second compound 0.1 µM, first compound 0.0316 µM) of 105%. For the same molecule, the viability, T/C (second compound 0.1 µM, first compound 0.1 µM) was 97.8%, the viability, T/C (second compound 0.1 µM, first compound 0.316 µM) was 81.3% and the viability, T/C (second compound 0.1 µM, first compound 1 µM) was 90.8%. The viability, T/C (second compound 0.1 µM, first compound 3.16 µM) was 35.8%, the viability, T/C (second compound 0.1 µM, first compound 10 µM) was 11.8% and the viability, T/C (second compound 0.316 µM, first compound 0.0316 µM) was 99.1%. It also gave a viability, T/C (second compound 0.316 µM, first compound 0.1 µM) of 90.2%, a viability, T/C (second compound 0.316 µM, first compound 0.316 µM) of 98.5% and a viability, T/C (second compound 0.316 µM, first compound 1 µM) of 97%. It also gave a viability, T/C (second compound 0.316 µM, first compound 3.16 µM) of 33.9%, a viability, T/C (second compound 0.316 µM, first compound 10 µM) of 11.3% and a viability, T/C (second compound 1 µM, first compound 0.0316 µM) of 89.4%. For the same molecule, the viability, T/C (second compound 1 µM, first compound 0.1 µM) was 105%, the viability, T/C (second compound 1 µM, first compound 0.316 µM) was 81.8% and the viability, T/C (second compound 1 µM, first compound 1 µM) was 84.2%. It also gave a viability, T/C (second compound 1 µM, first compound 3.16 µM) of 34%, a viability, T/C (second compound 1 µM, first compound 10 µM) of 9.66% and a viability, T/C (second compound 3.16 µM, first compound 0.0316 µM) of 91.2%. The viability, T/C (second compound 3.16 µM, first compound 0.1 µM) was 83.8%, the viability, T/C (second compound 3.16 µM, first compound 0.316 µM) was 87.6% and the viability, T/C (second compound 3.16 µM, first compound 1 µM) was 95.1%. For the same molecule, the viability, T/C (second compound 3.16 µM, first compound 3.16 µM) was 31.8%, the viability, T/C (second compound 3.16 µM, first compound 10 µM) was 9.83% and the viability, T/C (second compound 10 µM, first compound 0.0316 µM) was 82.1%. For the same molecule, the viability, T/C (second compound 10 µM, first compound 0.1 µM) was 87.2%, the viability, T/C (second compound 10 µM, first compound 0.316 µM) was 87.5% and the viability, T/C (second compound 10 µM, first compound 1 µM) was 79.7%. The viability, T/C (second compound 10 µM, first compound 3.16 µM) was 35.6% and the viability, T/C (second compound 10 µM, first compound 10 µM) was 10.9%.

With `Nc1ncn(C2CC(O)C(CO)S2)c(=O)n1` (stereo not given) + Cc1ccccc1N=Nc1ccc(NC(=O)c2ccnn2C)c(C)c1 the IC50 (second compound 0.1 µM) was greater than 300 nM, the IC50 (second compound 0.316 µM) was greater than 300 nM and the IC50 (second compound 1 µM) was greater than 300 nM. For the same molecule, the IC50 (second compound 3.16 µM) was greater than 300 nM, the IC50 (second compound 10 µM) was greater than 300 nM and the viability, T/C (second compound 0.1 µM, first compound 0.000949 µM) was 97.2%. It also gave a viability, T/C (second compound 0.1 µM, first compound 0.003 µM) of 123%, a viability, T/C [1] of 119% and a viability, T/C [2] of 104%. The viability, T/C [3] was 132%, the viability, T/C [4] was 111% and the viability, T/C (second compound 0.316 µM, first compound 0.000949 µM) was 106%. It also gave a viability, T/C (second compound 0.316 µM, first compound 0.003 µM) of 106%, a viability, T/C [5] of 105% and a viability, T/C [6] of 109%. For the same molecule, the viability, T/C [7] was 109%, the viability, T/C [8] was 116% and the viability, T/C (second compound 1 µM, first compound 0.000949 µM) was 103%. The viability, T/C (second compound 1 µM, first compound 0.003 µM) was 109%, the viability, T/C [9] was 100% and the viability, T/C [10] was 127%. The viability, T/C [11] was 127%, the viability, T/C [12] was 108% and the viability, T/C (second compound 3.16 µM, first compound 0.000949 µM) was 108%. For the same molecule, the viability, T/C (second compound 3.16 µM, first compound 0.003 µM) was 104%, the viability, T/C [13] was 107% and the viability, T/C [14] was 106%. It also gave a viability, T/C [15] of 117%, a viability, T/C [16] of 120% and a viability, T/C (second compound 10 µM, first compound 0.000949 µM) of 96.5%. The viability, T/C (second compound 10 µM, first compound 0.003 µM) was 102%, the viability, T/C [17] was 102% and the viability, T/C [18] was 99.5%. It also gave a viability, T/C [19] of 93% and a viability, T/C [20] of 90.1%.

With `O=C(C=Cn1cnc(-c2cc(C(F)(F)F)cc(C(F)(F)F)c2)n1)NNc1cnccn1` + Cc1ccccc1N=Nc1ccc(NC(=O)c2ccnn2C)c(C)c1 the IC50 (second compound 0.1 µM) was 494 nM, the IC50 (second compound 0.316 µM) was 506 nM and the IC50 (second compound 1 µM) was 540 nM. For the same molecule, the IC50 (second compound 3.16 µM) was 468 nM, the IC50 (second compound 10 µM) was 424 nM and the viability, T/C [1] was 98.7%. The viability, T/C [2] was 107%, the viability, T/C [3] was 101% and the viability, T/C [4] was 75.4%. It also gave a viability, T/C (second compound 0.1 µM, first compound 0.949 µM) of 16.8%, a viability, T/C (second compound 0.1 µM, first compound 3 µM) of 8.98% and a viability, T/C [5] of 94.2%. The viability, T/C [6] was 102%, the viability, T/C [7] was 108% and the viability, T/C [8] was 77.7%. For the same molecule, the viability, T/C (second compound 0.316 µM, first compound 0.949 µM) was 16.9%, the viability, T/C (second compound 0.316 µM, first compound 3 µM) was 7.87% and the viability, T/C [9] was 92.9%. It also gave a viability, T/C [10] of 106%, a viability, T/C [11] of 108% and a viability, T/C [12] of 82.6%. The viability, T/C (second compound 1 µM, first compound 0.949 µM) was 18.7%, the viability, T/C (second compound 1 µM, first compound 3 µM) was 8.79% and the viability, T/C [13] was 96.4%. It also gave a viability, T/C [14] of 88.4%, a viability, T/C [15] of 106% and a viability, T/C [16] of 71.7%. For the same molecule, the viability, T/C (second compound 3.16 µM, first compound 0.949 µM) was 16.4%, the viability, T/C (second compound 3.16 µM, first compound 3 µM) was 10.3% and the viability, T/C [17] was 90.2%. The viability, T/C [18] was 88%, the viability, T/C [19] was 83.7% and the viability, T/C [20] was 63%. For the same molecule, the viability, T/C (second compound 10 µM, first compound 0.949 µM) was 20.5% and the viability, T/C (second compound 10 µM, first compound 3 µM) was 12.7%.

From PubChem BioAssay AID1918991 (Molecular Pharmacology Branch, DTP, NCI, 2023)
